Laboratory results taken from patent US9702824B2, “pH sensors” (PROMEGA CORPORATION, priority 2012, dated 2017).

Columns and labels:
[1] = Fluorescence intensity loss and recovery when titrated with base and acid; format: physicochemical; settings: titrated from pH 4 to approximately 8 with NaOH and back to approximately 4 with HCl
Procedure: This example was performed to determine if fluorescence intensity of a pH sensor of the present invention, PBI-4479, which is mostly fluorescent at pH 4, could be recovered when titrated to basic pH, then back to acidic pH. In order to limit disruption of the concentration of the sensor, the experiment was run in a large volume, and the pH was adjusted dropwise with a concentrated base, then with an acid. The product was first dissolved in DMSO to create a concentrated stock, and then a small amount was diluted into 100 mL 10 mM sodium phosphate buffer pH 4.0. Fluorescence was recorded on a HoribaJobinYvon Fluorolog throughout the experiment using an excitation of 528 nm, and emission at 557 nm maintaining a slit width of 2 nm. Excitation and emission maxima were also determined for each aliquot in the event the fluorescence properties of the molecule changed. pH was monitored using a calibrated pH probe (Denver Instruments Model 215 pH meter). 1 mL aliquots were removed when the solution increased to approximately one pH unit, and fluorescence was measured using the parameters stated above. The solution was first titrated dropwise with 2N sodium hydroxide while stirring, until a pH of approximately 8 was attained. The solution was then titrated down with 4N hydrochloric acid until a pH of approximately 4 was attained.

[2] = Stability in DMSO by HPLC purity; format: physicochemical; settings: 2 mM in DMSO; for HPLC Purity @ 532 nm, Ave: average of days 0-110; for HPLC Purity @ 532 nm: shielded from light
Procedure: PBI-4479 was dissolved to 2 mM in DMSO to approximately 2.33 mg/mL. Aliquots of 350 uL from the 2 mM solution were stored shielded from light at −20° C., 4° C. and room temperature. Stability was established by measuring fluorescent emission intensity and by testing HPLC purity at time 0, 1 day, 1 week, 1 month, 4 months, and 6 months from when the solutions were prepared and stored. For the fluorescence measurements, each aliquot was diluted (1 uL) into 4 mL of 0.1M sodium phosphate pH 4.0 directly into a 4.5 mL plastic cuvette and mixed by inversion of the vial. The maximum emission peak at 562 nm was acquired using a HoribaJobinYvon fluorometer using an excitation of 532 nm with 1.5 nm slit width. For HPLC measurements, each aliquot was diluted to 1 mM in 0.1M sodium phosphate pH 4.0, and 2 uL tested. The purity of each aliquot was tested using an Agilent 1100 liquid chromatography system equipped with a quaternary pump and a diode-array detector. The diode-array detector was set at 254 nm and 532 nm. The elution was performed using a mobile phase (A) containing 0.1% TFA in water, and a mobile phase (B) containing HPLC grade acetonitrile. A Phenomenex Synergi MAX-RP column (50×4.6 mm; 2.6 μm) was used to perform the chromatography. The HPLC was performed as follows: a gradient ran 3% to 60% mobile phase (B) to 3.60 minutes, a hold at 60% mobile phase (B) for 1 minute, a ramp up to 100% mobile phase (B) to 6 minutes, another hold at 100% mobile phase (B) for 2 minutes, and then back to 3% mobile phase (B) for 1.5 minutes. The column was given 2.5 minutes to re-equilibrate back to the starting conditions. In these conditions, the product elutes at approximately 3.7 minutes. Purity (as area percent) of the product was reported at 254 nm and 532 nm.

U2-OS HaloTag-EDG1 cells = biological target: T1, U2-OS HaloTag-EDG1 cells (Homo sapiens, UniProt P21453); assay: Detection of internalization using an impermeable pH sensor (Example 13); format: cell-based; settings: 500 nM sensor, with 1 uM S1P
T1 construct: host or cells: U2-OS HaloTag-EDG1 cells
T1 sequence (P21453 with tags, fused parts or gaps): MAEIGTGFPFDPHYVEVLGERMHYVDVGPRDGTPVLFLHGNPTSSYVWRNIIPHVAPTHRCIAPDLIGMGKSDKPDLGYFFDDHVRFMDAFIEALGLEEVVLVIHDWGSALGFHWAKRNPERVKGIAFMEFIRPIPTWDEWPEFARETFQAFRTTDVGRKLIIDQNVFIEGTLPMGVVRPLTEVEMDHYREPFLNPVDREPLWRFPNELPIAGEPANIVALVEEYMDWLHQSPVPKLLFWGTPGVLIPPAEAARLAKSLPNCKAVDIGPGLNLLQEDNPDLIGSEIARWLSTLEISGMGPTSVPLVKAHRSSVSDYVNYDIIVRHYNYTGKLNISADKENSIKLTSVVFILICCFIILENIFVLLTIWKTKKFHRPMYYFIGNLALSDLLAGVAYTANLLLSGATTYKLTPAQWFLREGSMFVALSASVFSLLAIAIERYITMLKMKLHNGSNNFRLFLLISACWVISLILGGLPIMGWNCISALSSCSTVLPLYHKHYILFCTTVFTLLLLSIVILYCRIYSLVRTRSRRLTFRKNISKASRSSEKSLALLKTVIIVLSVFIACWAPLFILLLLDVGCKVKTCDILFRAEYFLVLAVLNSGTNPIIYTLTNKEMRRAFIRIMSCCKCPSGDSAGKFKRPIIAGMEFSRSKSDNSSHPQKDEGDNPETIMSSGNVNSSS
Procedure: The next day, the media was replaced with McCoy's 5A+0.5% cFBS and incubated overnight at 37° C./5% CO2. […] 1 uM S1P (Sphingosine-1-Phosphate) or carrier (DMSO) was then added to the cells, and images were acquired sequentially on Olympus FV500 at 37° C./5% CO2.

[3] = tested on: U2-OS NLS cells (U2-OS cells stably expressing a HaloTag protein with a nuclear localization sequence); assay: Permeability, pulse with sensor and chase with Oregon Green (Example 4); format: cell-based; settings: 0-20 uM pulse for 1 hour
Procedure: Experiments were conducted during development of embodiments of the present invention to determine the permeability and specificity of the pH sensor. U2-OS cells (for specificity) and U2-OS NLS cells (U2-OS cells stably expressing a HaloTag protein with a nuclear localization sequence (NLS); for permeability) were treated with the PBI-4479 sensor. Cells were plated at 40,000 cells/well in 200 ul McCoy's 5A media+10% FBS (“complete media”) onto LTII chamber slides. The cells were then incubated overnight at 37° C., 5% CO2. The cells were then pulsed with PBI-4479 from 0-20 uM for 1 hour. […] Cells were then imaged on an Olympus FV500.

[4] = pH dependence of fluorescence emission; format: physicochemical
Procedure: Experiments were conducted during development of embodiments of the present invention to determine the fluorescence characteristics of exemplary pH sensor agents PBI-4453 and PBI-4479 (SEE FIG. 1). Fluorescence excitation and emission intensities were measured at a range of wavelengths (SEE FIG. 2). […] Fluorescence detection was performed at a range of pH values (SEE FIG. 3).

O=C(NCCOCCOCCOCCOCCOCCOCCCCCCCl)c1ccc(C(=O)[O-])c(-c2c3ccc(=[N+]4CCN(CCCCS(=O)(=O)O)CC4)cc-3oc3cc(N4CCN(CCCCS(=O)(=O)O)CC4)ccc23)c1 [PBI-4479]
reversibility of fluorescence intensity [1]: fluorescent intensity loss and recovery | HPLC Purity @ 532 nm, Ave ([2]; 4° C.): 93.6 area percent | HPLC Purity @ 532 nm, Ave ([2]; RT): 92.5 area percent | HPLC Purity @ 532 nm ([2]; 4° C., 0 days): 91.8 area percent | HPLC Purity @ 532 nm ([2]; 4° C., 1 day): 92.5 area percent | HPLC Purity @ 532 nm ([2]; 4° C., 7 days): 93.9 area percent | HPLC Purity @ 532 nm ([2]; 4° C., 30 days): 95.7 area percent | HPLC Purity @ 532 nm ([2]; 4° C., 110 days): 93.9 area percent | HPLC Purity @ 532 nm ([2]; RT, 0 days): 91.8 area percent | HPLC Purity @ 532 nm ([2]; RT, 1 day): 91.3 area percent | HPLC Purity @ 532 nm ([2]; RT, 7 days): 92.5 area percent | HPLC Purity @ 532 nm ([2]; RT, 30 days): 95.1 area percent | HPLC Purity @ 532 nm ([2]; RT, 110 days): 91.8 area percent | HPLC Purity @ 532 nm ([2]; −20° C., 0 days): 91.1 area percent | HPLC Purity @ 532 nm ([2]; −20° C., 1 day): 93.9 area percent | HPLC Purity @ 532 nm ([2]; −20° C., 7 days): 92.7 area percent | HPLC Purity @ 532 nm ([2]; −20° C., 30 days): 95.8 area percent | HPLC Purity @ 532 nm ([2]; −20° C., 110 days): 95.2 area percent | HPLC Purity @ 532 nm, Ave ([2]; −20° C.): 93.7 area percent | detection of HaloTag-EDG1 internalization (U2-OS HaloTag-EDG1 cells): ability to detect internalization of HaloTag-EDG1 | cell permeability (labeling of HaloTag-NLS) [3]: impermeable | pH at or below which maximal fluorescence intensity is exhibited [4]: ≤ 3 | percent of maximal fluorescence intensity ([4]; at pH 8 or higher): ≤ 1% | pKa ([4]; from pH dependence of fluorescence): ~6.1
